The experiment concerns the target mTOR/GbL/Raptor (mTORC1) (Homo sapiens, UniProt P42345). The experiment is described as follows: mTOR/GbL/Raptor (mTORC1) ELISA assay. The experiment is classed as biochemical. As to conditions: phosphorylation of 4E-BP1; 0.2 nM mTORC1, 10 μM ATP; read-out: IC50 in this assay (mTORC1 ELISA). Put shortly:
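ELISA read-out: phospho-4E-BP1 captured on Ni-chelate plates and detected with anti-phospho antibody plus HRP-anti-IgG luminescence. The kinase step ran 120 min at ambient temperature with 0.2 nM human mTORC1, 10 µM ATP, 50 nM His-4E-BP1, 10 mM MnCl2, pH 7.2 HEPES.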
(ELISA stands for enzyme-linked immunosorbent assay.)

As a reminder, the IC50 is the midpoint of a concentration-inhibition curve.

`COc1ccc2c(N3CCOc4ccc(-c5cnc6nc(C)[nH]c6c5)cc4C3)nc(CN(C)C)nc2c1` [Example 613, N,N-dimethyl-1-{4-[7-(2-methyl-1H-imidazo[4,5-b]pyridin-6-yl)-2,3-dihydro-1,4-benzoxazepin-4(5H)-yl]-7-(methyloxy)quinazolin-2-yl}methanamine]: the IC50 lay in the range of 250 to 1000 nM.
For `Cc1nc2ccc(-c3ccc4c(c3)CN(c3ncnc5ccc(OCC#N)cc35)CCO4)cc2[nH]1` [Example 160, ({4-[7-(2-methyl-1H-benzimidazol-6-yl)-2,3-dihydro-1,4-benzoxazepin-4(5H)-yl]quinazolin-6-yl}oxy)acetonitrile], the IC50 fell in the range of 250 to 1000 nM.
As to `Cc1nc2c(c(N3CCOc4ccc(-c5cnc6nc(C)[nH]c6c5)cc4C3)n1)CC(C)CC2` (stereo not drawn) [Example 460, 4-(2,6-dimethyl-5,6,7,8-tetrahydroquinazolin-4-yl)-7-(2-methyl-1H-imidazo[4,5-b]pyridin-6-yl)-2,3,4,5-tetrahydro-1,4-benzoxazepine], the IC50 lay in the range of 10 to 50 nM.
As to `CC1(C)CCc2ncnc(N3CCOc4ccc(-c5cncc(NS(C)(=O)=O)c5)cc4C3)c2C1` [Example 634, N-{5-[4-(6,6-dimethyl-5,6,7,8-tetrahydroquinazolin-4-yl)-2,3,4,5-tetrahydro-1,4-benzoxazepin-7-yl]pyridin-3-yl}methanesulfonamide], the IC50 was in the range of 250 to 1000 nM.
For the molecule `CCSc1nc2c(c(N3CCOc4ccc(-c5ccc6nc(C)[nH]c6c5)cc4C3)n1)CCC2` [Example 54, 4-[2-(ethylthio)-6,7-dihydro-5H-cyclopenta[d]pyrimidin-4-yl]-7-(2-methyl-1H-benzimidazol-6-yl)-2,3,4,5-tetrahydro-1,4-benzoxazepine], the IC50 was in the range of 250 to 1000 nM.
As to `Cc1nc2ccc(-c3ccc4c(c3)CN(c3ncnc(C)c3C(C)c3cccc(F)c3)CCO4)cc2[nH]1` (stereo not drawn) [Example 94, 4-{5-[1-(3-fluorophenyl)ethyl]-6-methylpyrimidin-4-yl}-7-(2-methyl-1H-benzimidazol-6-yl)-2,3,4,5-tetrahydro-1,4-benzoxazepine], the IC50 is ≤ 10 nM.
For the molecule `CC1(C)CCc2ncnc(N3CCOc4ccc(-c5cnc(N)c(S(=O)(=O)NCCN)c5)cc4C3)c2C1` [Example 409, 2-amino-N-(2-aminoethyl)-5-[4-(6,6-dimethyl-5,6,7,8-tetrahydroquinazolin-4-yl)-2,3,4,5-tetrahydro-1,4-benzoxazepin-7-yl]pyridine-3-sulfonamide], the IC50 is ≤ 10 nM.
Consider `COCCc1c(C)nc(CN(C)C)nc1N1CCOc2ccc(-c3cnc4sc(N)nc4c3)cc2C1` [Example 667, 6-(4-{2-[(dimethylamino)methyl]-6-methyl-5-[2-(methyloxy)ethyl]pyrimidin-4-yl}-2,3,4,5-tetrahydro-1,4-benzoxazepin-7-yl)[1,3]thiazolo[5,4-b]pyridin-2-amine], for which the IC50 fell in the range of 50 to 250 nM.
Take `C[C@H]1CCc2c(ncnc2N2CCOc3ccc(-c4cnc5nc(C6CC6)[nH]c5c4)cc3C2)C1` [Example 546, 7-(2-cyclopropyl-1H-imidazo[4,5-b]pyridin-6-yl)-4-[(7S)-7-methyl-5,6,7,8-tetrahydroquinazolin-4-yl]-2,3,4,5-tetrahydro-1,4-benzoxazepine]: the IC50 fell in the range of 50 to 250 nM.
Regarding `COc1c(OCc2ccccc2)ccc2c(N3CCOc4ccc(-c5ccc6nc(C)[nH]c6c5)cc4C3)ncnc12` [Example 39, 7-(2-methyl-1H-benzimidazol-6-yl)-4-{8-(methyloxy)-7-[(phenylmethyl)oxy]quinazolin-4-yl}-2,3,4,5-tetrahydro-1,4-benzoxazepine], the IC50 is 50 to 250 nM.
With `COc1cc2nccc(N3CCOc4ccc(-c5cnc6nc(N)[nH]c6c5)cc4C3)c2cc1OC` [Example 188, 6-{4-[6,7-bis(methyloxy)quinolin-4-yl]-2,3,4,5-tetrahydro-1,4-benzoxazepin-7-yl}-1H-imidazo[4,5-b]pyridin-2-amine], the IC50 lay within 50 to 250 nM.
For the molecule `Cc1nc2ccc(-c3ccc4c(c3)CN(c3ncnc(C)c3Cc3ccccc3C)CCO4)cc2[nH]1` [Example 86, 7-(2-methyl-1H-benzimidazol-6-yl)-4-{6-methyl-5-[(2-methylphenyl)methyl]pyrimidin-4-yl}-2,3,4,5-tetrahydro-1,4-benzoxazepine], the IC50 fell in the range of 10 to 50 nM.
Regarding `CC1(C)CCc2ncnc(N3CCOc4ccc(-c5cnc(Nc6ccccc6)c(NS(C)(=O)=O)c5)cc4C3)c2C1` [Example 629, N-{5-[4-(6,6-dimethyl-5,6,7,8-tetrahydroquinazolin-4-yl)-2,3,4,5-tetrahydro-1,4-benzoxazepin-7-yl]-2-(phenylamino)pyridin-3-yl}methanesulfonamide], the IC50 was 250 to 1000 nM.
On to `Cc1nc2ncc(-c3ccc4c(c3)CN(c3nc(CNC5CCCC5)nc5c3CC(C)(C)CC5)CCO4)cc2[nH]1` [Example 598, N-({6,6-dimethyl-4-[7-(2-methyl-1H-imidazo[4,5-b]pyridin-6-yl)-2,3-dihydro-1,4-benzoxazepin-4(5H)-yl]-5,6,7,8-tetrahydroquinazolin-2-yl}methyl)cyclopentanamine], for which the IC50 is ≤ 10 nM.
As to `COc1cc2c(N3CCOc4ccc(-c5ccc6nc(C)[nH]c6c5)cc4C3)ncnc2cc1O` [Example 157, 4-[7-(2-methyl-1H-benzimidazol-6-yl)-2,3-dihydro-1,4-benzoxazepin-4(5H)-yl]-6-(methyloxy)quinazolin-7-ol], the IC50 is 250 to 1000 nM.
In the case of `Cc1nc2cc(-c3ccc4c(c3)CN(c3nc(CCN5CCCC5)nc5c3CC(C)(C)CC5)CCO4)cnc2[nH]1` [Example 497, 4-[6,6-dimethyl-2-(2-pyrrolidin-1-ylethyl)-5,6,7,8-tetrahydroquinazolin-4-yl]-7-(2-methyl-3H-imidazo[4,5-b]pyridin-6-yl)-2,3,4,5-tetrahydro-1,4-benzoxazepine], the 50% inhibitory concentration (IC50) was 10 to 50 nM.
Turning to `CCN(CC)Cc1nc2c(c(N3CCOc4ccc(-c5cnc6nc(C)[nH]c6c5)cc4C3)n1)CC(C)(C)CC2` [Example 602, N-({6,6-dimethyl-4-[7-(2-methyl-1H-imidazo[4,5-b]pyridin-6-yl)-2,3-dihydro-1,4-benzoxazepin-4(5H)-yl]-5,6,7,8-tetrahydroquinazolin-2-yl}methyl)-N-ethylethanamine], the 50% inhibitory concentration (IC50) was in the range of 10 to 50 nM.
Take `COc1cncc(-c2ccc3c(c2)CN(c2ncnc4c2CC(C)(C)CC4)CCO3)c1` [Example 476, 4-(6,6-dimethyl-5,6,7,8-tetrahydroquinazolin-4-yl)-7-[5-(methyloxy)pyridin-3-yl]-2,3,4,5-tetrahydro-1,4-benzoxazepine]: the half-inhibitory concentration (IC50) is 250 to 1000 nM.
`CCc1c(C)ncnc1N1CCOc2ccc(-c3ccc4nc(C)[nH]c4c3)cc2C1` [Example 64, 4-(5-ethyl-6-methylpyrimidin-4-yl)-7-(2-methyl-1H-benzimidazol-6-yl)-2,3,4,5-tetrahydro-1,4-benzoxazepine]: the IC50 lay within 50 to 250 nM.
`CC1=Cc2ncnc(N3CCOc4ccc(-c5cnc6nc(C)[nH]c6c5)cc4C3)c2CC1(C)C` [Example 553]: the IC50 is ≤ 10 nM.
To `Cc1nc2ncc(-c3ccc4c(c3)CN(c3ncnc5c3C[C@H](C)[C@@H](C)C5)CCO4)cc2[nH]1` [Example 486, 4-[(6S,7S)-6,7-dimethyl-5,6,7,8-tetrahydroquinazolin-4-yl]-7-(2-methyl-1H-imidazo[4,5-b]pyridin-6-yl)-2,3,4,5-tetrahydro-1,4-benzoxazepine] belongs ≤ 10 nM.

These data come from patent US8648066B2 (Exelixis, Inc., priority 2009, dated 2014).
